Literature values, collected in US6951873B1, “Methods for treating age-related behavioral disorders in companion animals” (priority 1999, dated 2005).

Tested on: aged-impaired dogs
Details: spatial memory model sensitive to age-dependent cognitive impairment

C#CCN(C)[C@H](C)Cc1ccccc1.Cl [selegiline chloride]
Performance of aged-impaired dogs on this test: improved
